Laboratory results taken from paper PMC7766155, “Improved Stability and Activity of a Marine Peptide-N6NH2 against Edwardsiella tarda and Its Preliminary Application in Fish” (Marine Drugs, 2020).
Converted amounts (≈) assume the structure as drawn. “And” between values parts separate entries of the source, which are not always exact repeats. Equal values may be shown once. Read-outs that look alike come from different tables or passages of the source. Where a SMILES comes first, the peptide text is derived from it. Bridges are numbered along the chain shown (N, C = ends).

Experiments:
E. tarda [1] = assay: Fish peritonitis model, survival; assay type: in vivo, O. niloticus; conditions: 1.29 mg/kg norfloxacin i.p. once
Experimental: The fish (O. niloticus, Gift strain, 20 g mean weight) were purchased from Beijing Fisheries Technology Extension Center, Hainan Station, China and were acclimated at 25 ± 1 °C. The fish were fed twice daily with commercial pellets for two weeks before experiments.
O. niloticus (6 fish/group) were intraperitoneally injected with LC100 of E. tarda, followed 30 min later by 200 µL N6NH2 (2.5, 5, and 10 mg/kg, respectively). Norfloxacin was used as a positive control. Fish injected with only bacteria or saline served as negative (untreated) or blank (unchallenged) controls, respectively. […] The fish survival rate was recorded daily for 5 d. Two independent experiments were conducted, including pre-experiment and formal experiment.

E. tarda cells = assay: TEM ultrastructure; assay type: cell-based, Edwardsiella tarda; conditions: 4 × MIC for 2 h, 1 × 10^8 CFU/mL
Experimental: Mid-log phase E. tarda cells (1 × 10^8 CFU/mL) were incubated with 4 × MIC N6 or N6NH2 for 2 h at 37 °C. The bacterial cells were then centrifuged, washed three times with 0.1 M PBS (pH 7.2) and fixed overnight at 4 °C with 2.5% glutaraldehyde. After washing twice with PBS, the cells were post-fixed with 1% osmium tetroxide (OsO4) for 2 h, dehydrated in a graded ethanol series (from 50% to 100%) for 15 min each time and dried by CO2. The cell samples were sputtered with gold-palladium and observed on a QUANTA200 electron microscopy (FEI, Philips, The Netherlands).
The bacterial cells were treated with peptides as described above, fixed with 2.5% glutaraldehyde at 4 °C overnight and post-fixed with 1% OsO4 for 1 h. After washing three times with PBS, the cells were dehydrated with a graded acetone series (50%, 70%, 85%, 95% and 100%, for 7 min each time) and immersed in mixtures of acetone and resin (3:1, 1:1 and 1:3, 40 min each time). The samples were infiltrated with a pure epoxy resin overnight, embedded in capsules containing embedding medium and polymerized at 45 °C for 3 h and at 65 °C for 24 h, respectively. Thin sections were cut using an ultramicrotome, stained with 1% uranyl acetate and examined by a JEM1400 (JEDL, Tokyo, Japan).

Edwardsiella tarda = assay: MIC, broth microdilution
[2] = system: Escherichia coli, S. typhimurium, S. enteritidis and S. pullorum; assay: organism not typed; assay type: cell-based; conditions: range over other Gram-negative strains of Table 2; read-out: MIC
Experimental: (§1) All tests were conducted in triplicate.

Staphylococcus hyicus = assay: microbe, parasite or virus in culture; assay type: cell-based
Experimental: as §1

E. tarda [3] = assay: pH stability (residual antibacterial activity, inhibition zone); assay type: physicochemical, Edwardsiella tarda; conditions: pH values of 2–10, 3 h incubation; N6 128 μg/mL, norfloxacin 10 μg/mL; inhibition zone method vs E. tarda
Experimental: (§2) To evaluate the thermal stability of peptides, N6 and N6NH2 were incubated for 1 h at 4, 20, 40, 60, 80 and 100 °C. To measure the pH stability, peptides were incubated for 3 h in 100 mM glycine-HCl buffer (pH 2.0), sodium acetate buffer (pH 4.0), sodium phosphate buffer (pH 6.0), Tris-HCl buffer (pH 8.0) or glycine-NaOH buffer (pH 10.0). In addition, peptides were incubated for 4 h at 37 °C in pepsin (3,000 U/mg, pH 2.0) and trypsin (250 U/mg, pH 8.0) (10:1, w/w) solutions, respectively. […] After treatment, 30 μL of solutions were taken out to determine the antibacterial activity of peptides against E. tarda by the inhibition zone method. The untreated peptides were used as the control. All tests were conducted in triplicate.

E. tarda [4] = assay: Fish peritonitis model, histopathology; assay type: in vivo, O. niloticus; conditions: N6NH2 (10 mg/kg) or norfloxacin 1.29 mg/kg; hematoxylin and eosin, light microscope; 3 fish/group
Experimental: The spleen, kidney, liver, intestine and brain samples (3 fish/group) were used for tissue section observation. After 24 h of fixation, all samples were dehydrated with 75–95% ethanol, embedded in paraffin and cut to 6 μm thin sections. Sections were stained with hematoxylin and eosin and observed by a light microscope.

E. tarda [5] = assay: Fish peritonitis model, bacterial translocation (organ load); assay type: in vivo, O. niloticus; conditions: 1.29 mg/kg norfloxacin i.p. once; 24 h after treatment
Experimental: Sixty fish were randomly divided into 6 groups (10 fish/group). […] The remaining untreated group served as negative control. The fish injected with saline were used as the blank control. The challenge and treatment were performed as described above. […] Other fish were used to analyze the effects on tissues and immune genes.

[6] = system: inner membrane of E. tarda; assay: Inner membrane penetration, PI staining, flow cytometry; assay type: cell-based, Edwardsiella tarda; conditions: norfloxacin-treated control, all time points of Figure 3B
Experimental: After washing twice with PBS, the cells were incubated with PI (50 μg/mL) for 15 min and analyzed using a FACS Calibur Flow Cytometer (BD, San Jose, CA, USA).

E. tarda [7] = assay: Thermal stability (residual antibacterial activity, inhibition zone); assay type: physicochemical, Edwardsiella tarda; conditions: incubated 1 h at 20, 40, 60, 80 or 100 °C; N6NH2 64 μg/mL, norfloxacin 10 μg/mL; inhibition zone method; triplicate
Experimental: as §2

S. aureus ATCC25923 = conditions: ATCC25923
S. pullorum CVCC1789 = conditions: CVCC1789
[8] = system: Staphylococcus aureus ATCC43300; conditions: ATCC43300
E. coli CVCC1515 = conditions: CVCC1515
[9] = system: Pseudomonas aeruginosa CICC21630; conditions: CICC21630
E. tarda [10] = assay type: cell-based, Edwardsiella tarda
Experimental: as §1

E. coli CVCCO157 = conditions: broth microdilution, MHB, 1 × 10^5 CFU/mL, 37 °C 18–24 h, n = 3; some N6 data from ref 19
S. aureus ATCC546 = conditions: ATCC546
E. tarda and A. veronii = assay type: cell-based
Experimental: as §1

[11] = system: Gram-negative bacteria (except Pseudomonas aeruginosa CICC21630); assay: MIC, range over strains; assay type: cell-based; conditions: range over Gram-negative strains of Table 2
Experimental: as §1

S. enteritidis CVCC3377 = conditions: CVCC3377
RAW 264.7 macrophages = assay type: cell-based, mouse; conditions: 48 h
Experimental: The colorimetric MTT assay was used to determine the effect of peptides on the viability of murine peritoneal RAW 264.7 macrophage cells. Macrophage cells were added into 96-well plates (5 × 10^3 cells/well) and incubated for 24 h at 37 °C (5% (v/v) CO2/air). A series of peptide solutions were added into the cells and incubated for 48 h. The untreated cells were used as the control (Acontrol). The MTT solution was added into plates, incubated for 4 h, and then removed from plates. Dimethyl sulfoxide (DMSO) was then added into plates and the absorbance was measured at 570 nm in a spectrophotometer. The cell viability was calculated using the following formula: Survival rate (%) = […] × 100.

E. tarda [12] = assay: Kirby-Bauer disk diffusion susceptibility; assay type: cell-based, Edwardsiella tarda; conditions: disc diffusion, MHA, 37 °C 18 h, CLSI standard; 27 antibiotics; Supplementary Table S2
Experimental: The susceptibility of E. tarda to antibiotics was determined by the Kirby-Bauer disk diffusion method according to Clinical Laboratory Standards Institute (CLSI). E. tarda was cultured in TSB medium (10 mL) at 28 °C overnight. The MHA petri dish plates were seeded with a 250 μL bacterial solution (OD600nm = 1.0). […] The diameter of the bacterial inhibition zone was measured, and the results were determined according to the standard of CLSI.

[13] = LPS binding, BODIPY-TR-cadaverine displacement; parameters: species or system E. coli; conditions: 0.5 µM LPS, 5 μM BC, Tris buffer pH 7.4; 0.049 μM to 50 μM; excitation/emission 580/620 nm

Compound: CCn1cc(C(=O)O)c(=O)c2cc(F)c(N3CCNCC3)cc21 [Norfloxacin]
- survival rate of fish (E. tarda [1]; 0.5 h after E. tarda 1.0 × 10^9 CFU/mL i.p., within 2 d, 6 fish/group): 16.7%
- survival rate of fish (E. tarda [1]; time not stated in the sentence (survival recorded for 5 d)): 16.7%
- abnormal cells (TEM) (E. tarda cells): not significantly affected
- MIC (Edwardsiella tarda): 0.5 µg/mL and 1.57 µM
- MIC [2]: 0.06 to 1 µg/mL (≈ 0.188 to 3.13 µM)
- MIC (Staphylococcus hyicus; Staphylococcus hyicus, range over S. hyicus strains of Table 2, read-out: MIC): 4 to 16 µg/mL (≈ 12.5 to 50.1 µM)
- antibacterial activity at different pH values (E. tarda [3]): strong antibacterial activity
- histological findings in liver, kidney and intestine (E. tarda [4]): obvious pathological changes were found in organs
- number of bacteria in organs (blood, spleen, kidney, liver) (E. tarda [5]): did not decrease in any organs except the liver
- percentage of E. tarda stained with PI [6]: less than 1%
- antimicrobial activity against E. tarda after exposure to temperature (E. tarda [7]): did not change

Compound: CC(C)[C@@H]1NC(=O)CNC(=O)[C@H](CC(N)=O)NC(=O)[C@H](CCCNC(=N)N)NC(=O)[C@H](Cc2ccc(O)cc2)NC(=O)[C@H](C(C)C)NC(=O)[C@@H](NC(=O)[C@@H](NC(=O)[C@H](CC(N)=O)NC(=O)[C@H](Cc2c[nH]c3ccccc23)NC(=O)[C@H](C)NC(=O)[C@H](Cc2ccccc2)NC(=O)CN)C(C)C)CSSC[C@@H](C(=O)N[C@@H](Cc2c[nH]cn2)C(=O)N[C@@H](CCCNC(=N)N)C(=O)N[C@@H](CCCNC(=N)N)C(=O)N[C@@H](C)C(=O)N[C@@H](CC(N)=O)C(N)=O)NC(=O)[C@H](C(C)C)NC(=O)[C@H](CCCNC(=N)N)NC1=O [Peptide N6NH2] (H-GFAWNVCVYRNGVRVCHRRAN-NH2; disulfide 7-16)
- MIC (S. aureus ATCC25923): 5.17 µM (≈ 12.8 µg/mL)
- MIC (S. pullorum CVCC1789): 1.29 µM (≈ 3.19 µg/mL)
- MIC [8]: 2.58 µM (≈ 6.39 µg/mL)
- MIC (E. coli CVCC1515): 0.323 µM (≈ 0.799 µg/mL)
- MIC [9]: 10.34 µM (≈ 25.6 µg/mL)
- MBC (E. tarda [10]): 6.4 µg/mL (≈ 2.59 µM)
- MIC (S. hyicus 437-2): 5.17 µM (≈ 12.8 µg/mL)
- MIC (Staphylococcus hyicus): 3.2 to 12.8 µg/mL
- MIC (E. coli CVCCO157): 0.646 µM (≈ 1.6 µg/mL)
- MIC (S. aureus ATCC546): 2.58 µM (≈ 6.39 µg/mL)
- MIC (S. hyicus 15095): 1.29 µM (≈ 3.19 µg/mL)
- MIC (E. tarda and A. veronii): 0.65 to 1.29 µM
- MIC [11]: 0.8 to 3.2 µg/mL
- MIC (S. enteritidis CVCC3377): 0.323 µM (≈ 0.799 µg/mL)

Compound: CC(C)[C@@H]1NC(=O)CNC(=O)[C@H](CC(N)=O)NC(=O)[C@H](CCCNC(=N)N)NC(=O)[C@H](Cc2ccc(O)cc2)NC(=O)[C@H](C(C)C)NC(=O)[C@@H](NC(=O)[C@@H](NC(=O)[C@H](CC(N)=O)NC(=O)[C@H](Cc2c[nH]c3ccccc23)NC(=O)[C@H](C)NC(=O)[C@H](Cc2ccccc2)NC(=O)CN)C(C)C)CSSC[C@@H](C(=O)N[C@@H](Cc2cnc[nH]2)C(=O)N[C@@H](CCCNC(=N)N)C(=O)N[C@@H](CCCNC(=N)N)C(=O)N[C@@H](C)C(=O)N[C@@H](CC(N)=O)C(N)=O)NC(=O)[C@H](C(C)C)NC(=O)[C@H](CCCNC(=N)N)NC1=O [Peptide N6NH2] (H-GFAWNVCVYRNGVRVCHRRAN-NH2; disulfide 7-16)
- cell survival rate (RAW 264.7 macrophages): > 93.35%

Compound: CC(C)[C@@H]1NC(=O)CNC(=O)[C@H](CC(N)=O)NC(=O)[C@H](CCCNC(=N)N)NC(=O)[C@H](Cc2ccc(O)cc2)NC(=O)[C@H](C(C)C)NC(=O)[C@@H](NC(=O)[C@@H](NC(=O)[C@H](CC(N)=O)NC(=O)[C@H](Cc2c[nH]c3ccccc23)NC(=O)[C@H](C)NC(=O)[C@H](Cc2ccccc2)NC(=O)CN)C(C)C)CSSC[C@@H](C(=O)N[C@@H](Cc2cnc[nH]2)C(=O)N[C@@H](CCCNC(=N)N)C(=O)N[C@@H](CCCNC(=N)N)C(=O)N[C@@H](C)C(=O)N[C@@H](CC(N)=O)C(=O)O)NC(=O)[C@H](C(C)C)NC(=O)[C@H](CCCNC(=N)N)NC1=O [Peptide N6] (H-GFAWNVCVYRNGVRVCHRRAN-OH; disulfide 7-16)
- cell survival rate (RAW 264.7 macrophages): > 93.35%

Compound: CC1(C)S[C@@H]2[C@H](NC(=O)[C@H](N)c3ccc(O)cc3)C(=O)N2[C@H]1C(=O)O [amoxicillin]
- susceptibility of E. tarda to antibiotics (E. tarda [12]): resistance

Compound: CC1(C)S[C@@H]2[C@H](NC(=O)[C@H](N)c3ccccc3)C(=O)N2[C@H]1C(=O)O [ampicillin, reference compound]
- binding to LPS (displacement of BC probe) [13]: neither ampicillin nor norfloxacin replaced the BC probe or bound to LPS

Compound: O=C1OCCN1/N=C/c1ccc([N+](=O)[O-])o1 [furazolidone]
- susceptibility of E. tarda to antibiotics (E. tarda [12]): resistance

Compound: bacitracin
- susceptibility of E. tarda to antibiotics (E. tarda [12]): resistance
